Patent US8338428B2, “Methods for administering aripiprazole” (Alkermes, Inc., priority 2003, dated 2012)
“Also recorded” adds a separate entry of the source.

Assay: Pharmacokinetic evaluation of aripiprazole in rats following single subcutaneous doses of aripiprazole formulations
Type: in vivo, Sprague-Dawley rats
Conditions: rat, single SC injection of 10, 20 or 30 mg bulk drug in 0.75 mL diluent (3% CMC, 0.1% Tween 20, 0.9% NaCl); plasma 2 h to 28 d; versus microspheres with 30% or 50% load
Method: Experimental: Pharmacokinetic Evaluation of Aripiprazole in Rats Following Administration of Single Subcutaneous Doses of Aripiprazole Formulations. Species and Strain: Sprague-Dawley rats. Male; 450 +/−50 grams. Study Groups: 5 Groups, 15 subjects • Group A: three rats injected once SC with 10 mg of Aripiprazole. • Group B: three rats injected once SC with 20 mg of Aripiprazole. • Group C: three rats injected once SC with 30 mg of Aripiprazole. • Group D: three rats injected once SC with ˜67 mg of microparticles. • Group E: three rats injected once SC with ˜40 mg of microparticles. […] Route of Injection: Subcutaneous (SC) injection into the interscapular region. Injection Vehicle: Aqueous diluent containing 3% CMC (low viscosity), 0.1% Tween 20, in 0.9% NaCl and water. Dose Volumes: Suspensions were formulated as follows: • Group A: 10 mg powder in 0.75 mL Diluent • Group B: 20 mg powder in 0.75 mL Diluent • Group C: 30 mg powder in 0.75 mL Diluent • Group D: ˜67 mg microparticles in 0.75 mL Diluent • Group E: 40 mg microparticles in 0.75 mL Diluent Blood Collection: Blood samples were collected via a lateral tail vein after anesthesia with Halothane. A syringe without an anticoagulant was used for the blood collection, then the whole blood was transferred to tubes containing K2 EDTA and mixing beads (MICROTAINER®; MFG# BD365974). […]

O=C1CCc2ccc(OCCCCN3CCN(c4cccc(Cl)c4Cl)CC3)cc2N1 [aripiprazole, Aripiprazole]
plasma release profile of SC bolus injection compared with aripiprazole-containing PLGA microspheres: substantially the same; also recorded: extended release profile similar to that obtained by the injection of a poly lactide-co-glycolide microsphere formulation
